Measurements as given in article PMC10363080, “Modulatory Effect of Pyrus pyrifolia Fruit and its Phenolics on Key Enzymes against Metabolic Syndrome: Bioassay-Guided Approach, HPLC Analysis, and In Silico Study” (Plant Foods for Human Nutrition (Dordrecht, Netherlands), 2023).
Read-outs that look alike come from different tables or passages of the source.

Assays:
[1] = Ferric reducing antioxidant power (FRAP) assay; parameters: FRAP AA (%) antioxidant activity percentage: concentration or dose not given beside the values; settings: for FRAP antioxidant activity: Trolox equivalent per gram of sample, mean ± SD, n=3; for FRAP AA (%) antioxidant activity percentage: compared to ascorbic acid (=100)
Method: (§1) all of analytical grade. An electrothermal 9100 (UK) was used for the determination of melting points (uncorrected). A Jenway model 6800 spectrophotometer was utilized for recording UV spectra. A Tecan, microplate reader, ((Infinite F50, Switzerland)) was used to measure the absorbances. A Bruker NMR system was used for 1H-NMR (400 MHz) and 13C-NMR (100 MHz).
(§2) The NMR spectra were determined in CD3OH and DMSO-d6. Chemical shifts are given in δ (ppm) relative to the internal standard TMS. Phenolic acids and flavonoids used in HPLC analysis as well as all other reagents for biological investigations were obtained from Sigma Chemical Company […]
(§3) Determination of the antioxidant activity
(§4) 2,2`-Azino-bis(3-ethylbenzothiazoline-6-sulfonic acid) (ABTS), ferric reducing antioxidant power (FRAP), and oxygen radical absorbance capacity (ORAC) assays were performed according to the previously published procedures. Ascorbic acid was used as a reference antioxidant […]
drug. […]

[2] = Oxygen radical absorbance capacity (ORAC) assay; settings: for ORAC antioxidant activity: Trolox equivalent per gram of sample, mean ± SD, n=3; for ORAC AA (%) antioxidant activity percentage: compared to ascorbic acid (=100)
Method: as §1, §2, §3, §4
drug. […]

[3] = ABTS radical scavenging antioxidant assay; parameters: ABTS AA (%) antioxidant activity percentage: concentration or dose not given beside the values; settings: for ABTS antioxidant activity: Trolox equivalent per gram of sample, mean ± SD, n=3; for ABTS AA (%) antioxidant activity percentage: compared to ascorbic acid (=100)
Method: as §1, §2, §3, §4
drug. […]

Recombinant renin = molecular target: T1, Recombinant renin (Homo sapiens, UniProt P00797); assay: Renin inhibitory activity (renin-inhibitor screening assay kit); type: biochemical; settings: read-out: Inhibition (IC50) Renin (converted)
T1 construct: purchased BPS Bioscince
T1 sequence (P00797 67-406): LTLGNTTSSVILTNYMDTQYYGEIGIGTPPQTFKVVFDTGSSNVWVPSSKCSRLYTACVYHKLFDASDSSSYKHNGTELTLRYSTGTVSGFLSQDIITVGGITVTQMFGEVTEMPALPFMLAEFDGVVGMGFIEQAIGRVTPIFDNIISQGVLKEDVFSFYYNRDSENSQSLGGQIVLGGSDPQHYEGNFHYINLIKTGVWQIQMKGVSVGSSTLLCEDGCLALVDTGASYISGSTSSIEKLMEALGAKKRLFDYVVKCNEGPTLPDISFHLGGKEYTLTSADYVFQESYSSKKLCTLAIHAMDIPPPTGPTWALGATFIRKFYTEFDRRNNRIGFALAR
Method: all of analytical grade. […]
(§5) Phenolic acids and flavonoids used in HPLC analysis as well as all other reagents for biological investigations were obtained from Sigma Chemical Company […]
(§6) Inhibitory activity against key enzymes related to metabolic syndrome (MS) All assays were performed in 96-well plates. Stock solutions of the extract (100 mg/mL), fractions (100 mg/mL), and isolated compounds (1000 µM) were prepared. Tested samples that exceeded […]
(§7) inhibitory concentration (IC50). The percentage of enzyme inhibition was calculated according to […]
(§8) % Inhibition = (A−B) − (C−D) x 100 […]
Renin inhibitory activity
The renin inhibitory activity was examined according to a previously described method using renin-inhibitor screening assay kit (BPS Bioscince, San Diego, CA, USA) and quinapril as a reference drug. Recombinant renin enzyme (50 μL) was dissolved in 50-mM Tris-HCl buffer (pH 8.0) and 100-mM NaCl (assay buffer) and stored at –80°C for further analysis. Twenty μL of renin substrate (A500 μM in DMSO), 150 μL of assay buffer, and 10 μL of each sample were used to prepare test solutions (10mg/ml in methanol). The blank samples were made using 10 μL of the sample, 20 μL of the substrate, and 160 μL of assay buffer. The positive control samples were created using 10 μL of methanol, 20 μL of substrate, and 150 μL of assay buffer. The positive control and tested samples were combined with 10 μL of the renin solution for the assay in order to catalyze the reaction. After that, the reaction mixture was incubated for 45 minutes at 37 °C.
The fluorescence generated at the 340 nm excitation and 490 nm emission wavelengths was measured using a microplate reader.
Xanthine oxidase (XO) inhibitory activity
Xanthine oxidase (XO) inhibitory potential was carried out according to a previous designed procedure using xanthine oxidase (XO, EC 1.17.3.2; Biovision, USA). Allopurinol was applied as a reference drug. Immediately prior to use, a mixture was made up of 50 μL of sample solution, 35 μL of phosphate buffer (70 mM, pH = 7.5), and 30 μL of new enzyme solution (0.01 units/mL in the same buffer). The reaction was started by adding 60 μL of the substrate solution (150 μM xanthine in the same buffer) following a pre-incubation at 25 °C for 15 minutes. After that, the mixture was incubated at 25 °C for 30 min. After adding 25 μL of 1 M HCl to terminate the reaction, the absorbance was measured at 290 nm with a microplate reader as previously

[4] = molecular target: T2, inducible nitric oxide synthase (iNOS) (Mus musculus, UniProt P29477); assay: iNOS inhibitory activity in LPS-induced RAW264.7 macrophages (nitrite, Griess reagent); type: cell-based; settings: read-out: Inhibition (IC50) iNOS (converted)
T2 construct: endogenous in cells; host or cells: RAW264.7 mouse macrophages, LPS-induced
T2 sequence (P29477 1-1144): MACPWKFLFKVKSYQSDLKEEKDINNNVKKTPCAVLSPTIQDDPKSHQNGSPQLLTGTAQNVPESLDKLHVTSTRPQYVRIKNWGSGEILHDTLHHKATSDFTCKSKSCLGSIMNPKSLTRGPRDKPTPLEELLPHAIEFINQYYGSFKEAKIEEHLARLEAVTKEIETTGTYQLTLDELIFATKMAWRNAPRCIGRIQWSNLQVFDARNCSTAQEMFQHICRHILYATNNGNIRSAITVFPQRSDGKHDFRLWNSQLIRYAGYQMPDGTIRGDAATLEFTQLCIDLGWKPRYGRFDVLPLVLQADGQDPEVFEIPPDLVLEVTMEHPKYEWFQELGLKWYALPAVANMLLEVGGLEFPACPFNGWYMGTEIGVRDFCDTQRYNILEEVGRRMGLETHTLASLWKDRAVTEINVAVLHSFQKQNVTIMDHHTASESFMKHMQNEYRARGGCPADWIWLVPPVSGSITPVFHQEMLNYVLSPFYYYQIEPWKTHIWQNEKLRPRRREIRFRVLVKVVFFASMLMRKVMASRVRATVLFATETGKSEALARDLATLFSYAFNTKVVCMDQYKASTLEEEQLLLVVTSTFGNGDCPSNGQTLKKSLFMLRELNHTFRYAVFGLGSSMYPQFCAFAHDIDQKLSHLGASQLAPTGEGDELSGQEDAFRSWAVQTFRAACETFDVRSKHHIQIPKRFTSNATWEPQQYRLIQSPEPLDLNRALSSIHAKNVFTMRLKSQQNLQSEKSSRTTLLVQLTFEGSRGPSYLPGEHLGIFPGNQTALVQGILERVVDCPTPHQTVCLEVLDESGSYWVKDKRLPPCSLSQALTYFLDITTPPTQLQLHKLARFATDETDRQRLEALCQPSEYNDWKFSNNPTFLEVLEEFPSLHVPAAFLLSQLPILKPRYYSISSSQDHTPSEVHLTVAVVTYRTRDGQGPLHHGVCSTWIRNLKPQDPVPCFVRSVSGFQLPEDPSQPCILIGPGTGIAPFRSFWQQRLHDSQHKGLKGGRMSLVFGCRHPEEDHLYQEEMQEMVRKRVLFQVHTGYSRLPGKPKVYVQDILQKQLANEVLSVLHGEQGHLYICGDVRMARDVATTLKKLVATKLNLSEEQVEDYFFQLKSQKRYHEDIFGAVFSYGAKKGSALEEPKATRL
Method: as §5, §6, §7, §8
Inducible nitric oxide synthase (iNOS) inhibitory activity iNOS inhibitory activity was determined in mouse macrophage cells (RAW264.7, Shanghai BOGO Industrial Co., Ltd., China) according to a previously designed method. Phenol red-free RPMI medium from Thermo-Fisher was used to develop macrophages. It was supplemented with 10% bovine calf serum, 100 U/mL of penicillin G sodium from Sigma-Aldrich, and 100 µg/mL of streptomycin (Sigma-Aldrich). Cells (50,000/well) were seeded onto 96-well plates, which were […]

IC50 (Recombinant renin; isolated compounds, Table S7) | IC50 ([4]; extract and fractions, Table S2, RAW264.7 cells) | IC50 ([4]; isolated compounds, Table S7, RAW264.7 cells) | IC50 (Recombinant renin; extract and fractions, Table S2) | Compound | FRAP antioxidant activity [1] | FRAP AA (%) antioxidant activity percentage [1] | ORAC antioxidant activity [2] | ORAC AA (%) antioxidant activity percentage [2] | ABTS antioxidant activity [3] | ABTS AA (%) antioxidant activity percentage [3] | FRAP antioxidant activity ([1]; listed as quercetin) | ORAC antioxidant activity ([2]; listed as quercetin) | ABTS antioxidant activity ([3]; listed as quercetin)
– | – | – | – | O=C1O[C@H]([C@@H](O)CO)C(O)=C1O [Ascorbic acid, reference compound] | 155.22±0.03 μM TE/g | 100% | 390.21±0.99 μM TE/g | 100% | 287.78±1.01 μM TE/g | 100% | – | – | –
21.9 ± 0.25 µM | – | – | – | O=c1c(O)c(-c2ccc(O)c(O)c2)oc2cc(O)cc(O)c12 [P5, quercetin] | 139.03±0.65 μM TE/g | 89.57% | 358.95±0.78 μM TE/g | 91.99% | 244.01±0.29 μM TE/g | 84.79% | 139.03 ± 0.65 μM TE/g | 358.95 ± 0.78 μM TE/g | 244.01 ± 0.29 μM TE/g
– | 4.51 µM | 4.51 µM | – | C=C1C(=O)O[C@H]2[C@H]1CC/C(C)=C/CC[C@@]1(C)O[C@@H]21 [parthenolide, reference compound] | – | – | – | – | – | – | – | – | –
0.045 µM | – | – | 0.0456 µM | CCOC(=O)[C@H](CCc1ccccc1)N[C@@H](C)C(=O)N1Cc2ccccc2C[C@H]1C(=O)O [quinapril, reference compound] | – | – | – | – | – | – | – | – | –
